Data published in patent US20240374726A1, “BAG6 SPECIFIC CHIMERIC ANTIGEN RECEPTOR, NUCLEIC ACID, BAG6 SPECIFIC CHIMERIC ANTIGEN RECEPTOR EXPRESSION PLASMID, BAG6 SPECIFIC CHIMERIC ANTIGEN RECEPTOR EXPRESSING CELL, USE THEREOF, AND PHARMACEUTICAL COMPOSITION FOR TREATING CANCER” (China Medical University Hospital, priority 2023, published 2024).
Several values for one entry are separate records, joined by “and”; a condition that tells them apart may be missing. Identical values can stand only once.

How the values were obtained:
Assay type in all cases: cell-based
[1] = tested on: B7-H6 on the plasma membrane of the human breast cancer cell line MDA-MB-231; assay: expression level of B7-H6, flow cytometry; details: doxorubicin 200 nM, 48 hours, versus untreated control
Method: (§1) To explore whether treatment with the chemotherapy drug affects the expression of BAG6, HLA-G and B7-H6 on the cell membrane of tumor cells, the tumor cells used were human breast cancer cell line MDA-MB-231, human malignant brain tumor cell line DBTRG-05MG (hereinafter referred to as DBTRG), human pancreatic cancer cell line AsPC-1, and human ovarian cancer cell line SKOV3. The tumor cells used were all purchased from the American Type Culture Collection (ATCC). The human breast cancer cell line MDA-MB-231 is a triple-negative breast cancer cell line, that is, the hormone receptor (ER, PR) and HER-2 receptor thereof are negative, and the human breast cancer cell line MDA-MB-231 was cultured in RPMI culture medium including 10% fetal bovine serum (FBS). The human malignant brain tumor cell line DBTRG was cultured in DMEM culture medium including 10% FBS. The human pancreatic cancer cell line AsPC-1 was cultured in RPMI culture medium including 10% FBS. The human ovarian cancer cell line SKOV3 was cultured in McCoy's 5A culture medium including 10% FBS.

[2] = tested on: BAG6 on the plasma membrane of the human breast cancer cell line MDA-MB-231; assay: expression level of BAG6, immunofluorescence staining and flow cytometry; details: doxorubicin 200 nM, 48 hours, versus untreated control
Method: as §1

[3] = tested on: HLA-G on the plasma membrane of the human breast cancer cell line MDA-MB-231; assay: expression level of HLA-G, flow cytometry; details: doxorubicin 200 nM, 48 hours, versus untreated control
Method: as §1

[4] = tested on: human malignant brain tumor cell line DBTRG; assay: tumor cell death, Annexin V-FITC/PI flow cytometry (cytotoxicity); details: group 1: chemotherapy drug alone, temozolomide 80 μg/mL, three independent trials
Method: The cells were subsequently incubated for 48 hours. Each type of the tumor cells was divided into six groups. In a control, the tumor cells were untreated. In a group 1, the tumor cells were treated with the chemotherapy drug. In a group 2, the tumor cells were treated with the parental primary T lymphocyte. In a group 3, the tumor cells are treated with the parental primary T lymphocyte and the chemotherapy drug. In a group 4, the tumor cells were treated with Example 1. In a group 5, the tumor cells were treated with Example 1 and the chemotherapy drug. […] In the group 4 and the group 5, the number of Example 1 treated was 1×10^5 cells. […] The treated cells of each group were stained with Annexin V-FITC and propidium iodide (PI), and the apoptosis and the death of the tumor cells were detected by the flow cytometry. The sum of the percentage of cells stained with Annexin V-FITC and/or PI were calculated to obtain the cytotoxicity. The results of the cytotoxicity were counted after three independent trials in each group.
The cells were subsequently incubated for 48 hours. […] The treated cells of each group were stained with Annexin V-FITC and PI, and the apoptosis and the death of the tumor cells were detected by the flow cytometry. The sum of the percentage of cells stained with Annexin V-FITC and/or PI were calculated to obtain the cytotoxicity. […]

[5] = tested on: B7-H6 on the plasma membrane of the human ovarian cancer cell line SKOV3; assay: expression level of B7-H6, flow cytometry; details: carboplatin 20 μM, 48 hours, versus untreated control
Method: as §1

[6] = tested on: BAG6 on the plasma membrane of the human ovarian cancer cell line SKOV3; assay: expression level of BAG6, immunofluorescence staining and flow cytometry; details: carboplatin 20 μM, 48 hours, versus untreated control
Method: as §1

[7] = tested on: HLA-G on the plasma membrane of the human ovarian cancer cell line SKOV3; assay: expression level of HLA-G, flow cytometry; details: carboplatin 20 μM, 48 hours, versus untreated control
Method: as §1

In the case of `COc1cccc2c1C(=O)c1c(O)c3c(c(O)c1C2=O)C[C@@](O)(C(=O)CO)C[C@@H]3O[C@H]1C[C@H](N)[C@H](O)[C@H](C)O1` [doxorubicin], the “expression of B7-H6 on the plasma membrane” value [1] is reported as “increase the expression of B7-H6”, the “expression of BAG6 on the plasma membrane” value [2] is reported as “increase the expression of BAG6” and the “expression of HLA-G on the plasma membrane” value [3] is reported as “increase the expression of HLA-G”.

For `Cn1nnc2c(C(N)=O)ncn2c1=O` [temozolomide], the death rate [4] was 8.4033% and 14.9267% and 5.5450% and 11.7933% and 13.9750%.

For `N.N.O=C([O-])C1(C(=O)[O-])CCC1.[Pt+2]` [carboplatin], the “expression of B7-H6 on the plasma membrane” value [5] was “increase the expression of B7-H6”, the “expression of BAG6 on the plasma membrane” value [6] was “increase the expression of BAG6” and the “expression of HLA-G on the plasma membrane” value [7] was “increase the expression of HLA-G”.
